The target in this assay is T1, HAD4 (PfHAD4) (Plasmodium falciparum, UniProt Q8III4).
T1 construct: gene PF3D7_1118400
Description: biochemical.

As usually defined, the IC50 is the concentration that inhibits the measured activity by half. A higher IC50 goes with lower potency.

T1 sequence (Q8III4 1-306): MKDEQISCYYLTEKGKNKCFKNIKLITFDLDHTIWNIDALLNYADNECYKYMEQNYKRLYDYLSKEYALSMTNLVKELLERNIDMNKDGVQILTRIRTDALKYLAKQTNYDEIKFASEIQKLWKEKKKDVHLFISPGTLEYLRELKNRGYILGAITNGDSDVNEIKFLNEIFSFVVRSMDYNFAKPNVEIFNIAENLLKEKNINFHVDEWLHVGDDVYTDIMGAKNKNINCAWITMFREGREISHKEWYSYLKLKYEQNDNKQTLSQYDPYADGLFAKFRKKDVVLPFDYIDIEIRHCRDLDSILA

In turn, `O=P(O)(O)O` [inorganic phosphate] showed an IC50 of 2100 ± 210 µM.
